From US20240309342A1, “QUORUM QUENCHING ENZYME, AND METHODS OF USING SAME” (MIGAL GALILEE RESEARCH INSTITUTE LTD., priority 2021, published 2024)

Each compound was assayed on moLRP (marine origin Lactonase Related Protein), putative AHL lactonase of the PTE-Like-Lactonase (PLL) family from marine metagenomes, recombinant with 6×His … (assay: AHL lactonase activity of purified moLRP (hydrolysis of N-acyl homoserine lactones, Michaelis-Menten kinetics, pH indicator cresol purple)). Details: hydrolysis of AHLs by moLRP; Table 1; FIG. 3 (C4-HSL): E0=0.4 μM, 27° C.; error = standard deviation, at least three independent measurements.
Type: biochemical, marine metagenome (Tara Oceans); MAG of phylum Chloroflexi

Q: For `CCCC(=O)CC(=O)N[C@H]1CCOC1=O` [3-Oxo C6-HSL, N-(3-oxohexanoyl)-L-homoserine lactone], which Km is on record?
A: The Km was 150 ± 13 µM.

Q: And the kcat?
A: Its kcat is 1.30 ± 0.10 s⁻¹.

Q: For `CCCC(=O)N[C@H]1CCOC1=O` [C4-HSL, N-butyryl-L-homoserine lactone], which Km is on record?
A: Its Km is 96.5 ± 15.3 µM.

Q: And the kcat?
A: The kcat was 1.85 ± 0.11 s⁻¹.

Q: What does the source list for `CCCCCC(=O)CC(=O)NC1CCOC1=O` (racemic) [3-Oxo C8-HSL, N-(3-oxooctanoyl)-DL-homoserine lactone]?
A: Km: 74.8 ± 11 µM; kcat: 0.519 ± 0.02 s⁻¹

Q: How did the Km turn out when `CCCCCCC(=O)N[C@H]1CCOC1=O` [C7-HSL, N-heptanoyl-L-homoserine lactone] was run?
A: The Km was 112 ± 19 µM.

Q: And the kcat?
A: Its kcat is 0.230 ± 0.02 s⁻¹.
